Reference: ChEMBL document CHEMBL4219119, “Benzoxazin-4-ones as novel, easily accessible inhibitors for rhomboid proteases” (Bioorg Med Chem Lett, 2018)
Activity calls are given as the source filed them. The calls are words filed in the database; no cut-off is given here.

Experiments:
Escherichia coli [1] = experiment: Competitive inhibition of Escherichia coli rhomboid GlpG at 100 uM preincubated for 30 mins followed by FP-Rh addition measured after 1 hr by gel-based ABPP method
[2] = molecular target: T1, Rhomboid protease GluP (Bacillus subtilis (strain 168)) (UniProt P54493); experiment: Competitive inhibition of Bacillus subtilis rhomboid YqgP at 100 uM preincubated for 30 mins followed by FP-Rh addition measured after 1 hr by gel-based ABPP method
T1 sequence (whole entry): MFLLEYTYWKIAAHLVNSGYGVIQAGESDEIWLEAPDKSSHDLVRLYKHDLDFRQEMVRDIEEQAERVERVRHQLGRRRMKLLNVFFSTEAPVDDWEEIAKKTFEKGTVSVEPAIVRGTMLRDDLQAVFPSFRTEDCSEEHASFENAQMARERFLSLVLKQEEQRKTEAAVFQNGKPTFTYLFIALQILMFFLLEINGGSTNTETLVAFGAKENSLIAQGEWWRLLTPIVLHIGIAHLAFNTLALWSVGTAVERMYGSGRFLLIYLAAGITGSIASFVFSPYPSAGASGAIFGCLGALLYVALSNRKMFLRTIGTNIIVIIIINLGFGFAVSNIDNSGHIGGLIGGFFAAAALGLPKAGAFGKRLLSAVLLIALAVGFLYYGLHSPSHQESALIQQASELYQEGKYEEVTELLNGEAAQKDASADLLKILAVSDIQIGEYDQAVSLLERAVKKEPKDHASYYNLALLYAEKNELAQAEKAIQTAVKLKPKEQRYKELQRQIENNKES

Escherichia coli [3] = experiment: Reversible inhibition of Escherichia coli rhomboid GlpG assessed as residual activity preincubated for 30 mins followed by excess drug removal for 240 mins before FP-Rh addition measured after 1 hr by ABPP method
[4] = Competitive inhibition of Escherichia coli rhomboid GlpG preincubated for 30 mins followed by FP-Rh addition measured after 1 hr by gel-based ABPP method
Rhomboid protease GluP = molecular target: T2, Rhomboid protease GluP (Bacillus subtilis (strain 168), UniProt P54493); experiment: Competitive inhibition of Bacillus subtilis rhomboid YqgP preincubated for 30 mins followed by FP-Rh addition measured after 1 hr by gel-based ABPP method
T2 sequence (P54493 whole entry): T1 sequence (whole entry)

[5] = Inhibition of bovine trypsin using Z-GGR-AMC as substrate preincubated for 30 mins followed by substrate addition measured for 20 mins by fluorescence assay; set-up: species or system Bos taurus
[6] = Inhibition of bovine chymotrypsin using Suc-AAF-AMC as substrate preincubated for 30 mins followed by substrate addition measured for 20 mins by fluorescence assay; set-up: species or system Bos taurus
Escherichia coli [7] = experiment: Competitive inhibition of Escherichia coli rhomboid GlpG assessed as residual enzyme activity at 100 uM preincubated for 30 mins followed by FP-Rh addition measured after 1 hr by gel-based ABPP method
[8] = molecular target: T1, Rhomboid protease GluP (Bacillus subtilis (strain 168)); experiment: Competitive inhibition of Bacillus subtilis rhomboid YqgP assessed as residual enzyme activity at 100 uM preincubated for 30 mins followed by FP-Rh addition measured after 1 hr by gel-based ABPP method
[9] = Selectivity index, ratio of IC50 for competitive inhibition of Escherichia coli rhomboid GlpG to IC50 for competitive inhibition of Bacillus subtilis rhomboid YqgP
Escherichia coli [10] = experiment: (§1) Inhibition of rhomboid GlpG in Escherichia coli MC4100 outer membrane permeabilized mutant containing delta-lptD4213 preincubated for 15 mins followed by pPR61 (pD881-SR_MBP-LacYTM2-Trx) substrate addition measured after 4 hrs by fluorescence based Western blot
Escherichia coli [11] = experiment: Reversible inhibition of Escherichia coli rhomboid GlpG assessed as residual activity at 10 uM preincubated for 30 mins followed by excess drug removal for 30 mins before FP-Rh addition measured after 1 hr by ABPP method
Escherichia coli [12] = experiment: Irreversible inhibition of Escherichia coli rhomboid GlpG assessed as residual activity at 10 uM preincubated for 30 mins followed by excess drug removal for 0 to 240 mins before FP-Rh addition measured after 1 hr by ABPP method
[13] = as §1
[14] = Selectivity index, ratio of IC50 for competitive inhibition of Bacillus subtilis rhomboid YqgP to IC50 for competitive inhibition of Escherichia coli rhomboid GlpG

SMILES	inhibition (Escherichia coli [1])	inhibition [2]	IC50 [4]	IC50 (Rhomboid protease GluP)	IC50 [5]	IC50 [6]	Activity (Escherichia coli [7])	Activity [8]	other results
O=c1oc(OCCc2ccccc2)nc2cccc(Cl)c12	inactive	inactive	–	–	–	–	–	–	–
O=c1oc(Cl)c(Cl)c2ccccc12	–	–	–	–	–	–	–	–	Activity (Escherichia coli [3]): 50%
O=c1oc(OCc2ccccc2)nc2c(Cl)cccc12	–	–	63000 nM	470 nM	< 100 nM	< 100 nM	< 5%	< 5%	Ratio IC50 [9]: 130
O=c1oc(OCc2ccccc2)nc2cc3ccccc3cc12	–	–	2400 nM	7300 nM	< 100 nM	< 100 nM	< 5%	< 5%	–
O=c1oc(OCc2ccccc2)nc2ccccc12	–	–	2500 nM	3700 nM	< 100 nM	< 100 nM	< 5%	< 5%	inhibition (Escherichia coli [10]): Active; inhibition (Escherichia coli [11]): inactive
C#CCCOc1oc(=O)c2cc(N)ccc2c1Cl	Active	Active	–	–	–	–	–	–	–
Cc1cccc2nc(OCCc3ccccc3)oc(=O)c12	inactive	inactive	–	–	–	–	–	–	–
C#CCOc1nc2cccc(C)c2c(=O)o1	–	–	–	2800 nM	1100 nM	< 100 nM	< 5%	< 5%	–
CCOc1nc2cccc(Cl)c2c(=O)o1	–	–	2200 nM	7100 nM	< 100 nM	< 100 nM	< 5%	< 5%	inhibition (Escherichia coli [10]): inactive; inhibition (Escherichia coli [12]): Active
O=c1oc(OCc2ccccc2)nc2cccc(Cl)c12	–	–	1200 nM	1600 nM	< 100 nM	< 100 nM	< 5%	< 5%	inhibition (Escherichia coli [10]): inactive; inhibition (Escherichia coli [12]): Active
Cc1cccc2nc(OCc3ccccc3)oc(=O)c12	–	–	1000 nM	15000 nM	< 100 nM	< 100 nM	< 5%	< 5%	IC50 [13]: 8500 nM; inhibition (Escherichia coli [12]): Active; Ratio IC50 [14]: 15
C#CCCCc1nc2cccc(C)c2c(=O)o1	Active	Active	–	–	–	–	–	–	–
C#CCCCc1nc2cccc(Cl)c2c(=O)o1	Active	Active	–	–	–	–	–	–	–
C#CCOc1nc2cccc(Cl)c2c(=O)o1	Active	Active	1700 nM	6200 nM	1200 nM	410 nM	< 5%	< 5%	inhibition (Escherichia coli [10]): inactive; inhibition (Escherichia coli [12]): Active
Cc1ccc2nc(OCc3ccccc3)oc(=O)c2c1	–	–	–	4600 nM	< 100 nM	< 100 nM	< 5%	< 5%	–
